In brackets after ≈: the same amount, converted by molar mass. Structures can show the parent of a compound that is named as a salt. Where two headings read alike, the source gives them in different places.
How the values were obtained:
[1] = system: S. aureus ATCC 29213; assay: MIC by agar dilution, S. aureus ATCC 29213; format: cell-based; details: Staphylococcus aureus, ATCC29213
Experimental: (§1) The compounds of the invention were evaluated against several β-lactamresistant bacteria strains by determining the minimum inhibitory concentration (MIC, μg/ml) of each compound with respect to each strain. The MIC, the lowest concentration of antibiotic which inhibits growth of the test organism, was determined by the agar dilution method.
(§2) To determine the MIC for bacterial isolates, the test compound was incorporated in a series of two-fold dilutions into liquified Mueller-Hinton agar. Upon solidification, a number of different bacterial strains were spot inoculated with a replicating device onto the agar surface. […] The procedures used in these studies have been standardized by the National Committee for Clinical Laboratory Standards (NCCLS), as per the NCCLS publication entitled METHODS FOR DILUTION ANTIMICROBIAL SUSCEPTIBILITY TESTS (1991), which is incorporated herein by reference.
(§3) Aliquots of antimicrobial agents were prepared in phosphate buffered saline (PBS) at pH 7.2. Tween 20 or DMSO was used as a solubilizing vehicle as needed. Standard methods of vortexing, sonicating and gentle heat were used to facilitate solubilizing the test agent. Typically, the concentration of the stock solution was 10× that of the highest drug concentration tested. A 1.28 mg/mL stock solution was used with a subsequent highest working concentration of 128 μg/mL. Serial two-fold dilutions were done through ≤0.25 μg/mL. Each drug level was tested in duplicate. Two-fold drug dilutions were done in sterile 50 mL tubes with a final drug volume of 5 mL. Upon the addition of 45 mL of molten agar, a 10-fold dilution resulted. Two, 25 mL. plates were then poured into 15×150 mm square Petri plates with grids and allowed to harden.
(§4) A control plate with a reference drug, either cefotaxime, vancomycin or imipenem, was used as the positive growth control. Stock concentrations of reference antibiotics were prepared and frozen at -80° C. Upon preparation, the control plates were sealed and stored in the refrigerator for up to 1 week prior to use; however, imipenem control plates had to be prepared just prior to use. All test plates were used within 24 hours of preparation.
(§5) Satisfactory results were obtained where the inoculum contained about 10^4 colony forming units (cfu) ±0.5 logs. Starting with pure cultures of the test isolates on agar plates, a few isolated colonies were transferred to a tube of nutrient broth and allowed to grow 4-6 hours at 35°-36° C. to reach log-phase growth. Dropwise addition of the broth culture to PBS was done to match a 0.5 McFarland turbidity standard equal to 10^8 cfu/mL. This was further diluted ten-fold in PBS to reach a working inoculum concentration of 10^7 cfu/mL. When 1 μL of the working inoculum was applied to the agar surface a concentration of about 10^4 cfu per spot was obtained.
(§6) Disposable sterile 1 μL loops were used to inoculate test plates, with each isolate in a designated grid on the agar plate. An alternate method of inoculation involved the use of a replica plater, a device with 48 steel pins allowing the simultaneous inoculation of multiple isolates. After the spots had dried, the plates were incubated at 35°-36° C. for 16-20 hours. Endpoints were assessed as the minimum inhibitory concentration (MIC) of antimicrobial agent.

[2] = system: S. aureus Col (Meth^R) (lac^-); assay: MIC by agar dilution, S. aureus Col (Meth^R) (lac^-); format: cell-based; details: for MIC: Staphylococcus aureus, agar dilution, S. aureus Col (Meth^R) (lac^-), read-out: MIC; for activity against S. aureus Col: in words, PBP2a producer
How it was run: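 Agar dilution per NCCLS (1991): two-fold dilutions from 128 μg/mL down to ≤0.25 μg/mL in Mueller-Hinton agar, each level in duplicate. Spots of about 10^4 cfu of log-phase culture; 16-20 h at 35°-36° C. MIC in μg/ml is the lowest concentration inhibiting growth.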

[3] = system: S. aureus 76 (Meth^R) (lac^+); assay: MIC by agar dilution, S. aureus 76 (Meth^R) (lac^+); format: cell-based; details: Staphylococcus aureus, read-out: MIC
Experimental: as §1, §2, §3, §4, §5, §6

[4] = system: S. aureus Col8A (Meth^S) (lac^-); assay: MIC by agar dilution, S. aureus Col8A (Meth^S) (lac^-); format: cell-based; details: for MIC: Staphylococcus aureus, agar dilution, S. aureus Col8A (Meth^S) (lac^-), read-out: MIC; for activity against S. aureus Col 8A: in words, lacks PBP2a
Experimental: as §1, §2, §3, §4, §5, §6
The novel agents of this invention are notable for their enhanced activity against S. aureus Col and Enterococci (E. faecium and E. faecalis). The S. aureus Col strain is a high-level PBP2a producer, whereas S. aureus Col 8A, its isogenic partner, lacks PBP2a. […] Thus, the compounds of the present invention are effective against PBP2a-producing bacteria.

[5] = system: S. haemolyticus (Meth^R); assay: MIC by agar dilution, S. haemolyticus (Meth^R); format: cell-based; details: Staphylococcus haemolyticus, read-out: MIC
Experimental: as §1, §2, §3, §4, §5, §6

[6] = system: E. faecium ATCC 35667; assay: MIC by agar dilution, E. faecium ATCC 35667; format: cell-based; details: Enterococcus faecium, ATCC35667, read-out: MIC
Experimental: as §1, §2, §3, §4, §5, §6

[7] = system: E. faecalis ATCC 29212; assay: MIC by agar dilution, E. faecalis ATCC 29212; format: cell-based; details: Enterococcus faecalis, ATCC29212, read-out: MIC
Experimental: as §1, §2, §3, §4, §5, §6

[8] = system: E. coli ATCC 25922; assay: MIC by agar dilution, E. coli ATCC 25922; format: cell-based; details: Escherichia coli, ATCC25922, read-out: MIC
Experimental: as §1, §2, §3, §4, §5, §6

[9] = system: P. aeruginosa ATCC 27853; assay: MIC by agar dilution, P. aeruginosa ATCC 27853; format: cell-based; details: Pseudomonas aeruginosa, ATCC27853, read-out: MIC
Experimental: as §1, §2, §3, §4, §5, §6

[10] = system: methicillin-susceptible S. aureus strain ATCC 13709; assay: murine model for lethal bacteremic peritonitis; format: in vivo, female Swiss-Webster mice; details: 72 h, subcutaneous; for ED50: Staphylococcus aureus, ATCC13709, sc, two equal doses, S. aureus ATCC 13709 IP challenge, read-out: ED50
How it was run: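 Female Swiss-Webster mice challenged IP with an LD100 titer of bacteria in 7% hog gastric mucin; groups of 10 treated SC with twofold drug increments (0.01–512 mg/kg) as two equal doses at challenge and 2 h later. Survival followed for 72 h; PD50 (total mg/kg) calculated by probit method.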

[11] = system: Enterococci (E. faecium and E. faecalis); assay: In vitro antibacterial evaluation, Enterococci; format: cell-based; details: in words
Experimental: as §1, §2, §3
A control plate with a reference drug, either cefotaxime, vancomycin or imipenem, was used as the positive growth control. […]
Disposable sterile 1 μL loops were used to inoculate test plates, with each isolate in a designated grid on the agar plate. […] Endpoints were assessed as the minimum inhibitory concentration (MIC) of antimicrobial agent.

[12] = agar dilution, S. aureus ATCC 29213, read-out: MIC

N=C(N)SCc1ccc(SC2=C(C(=O)O)N3C(=O)[C@@H](NC(=O)/C(=N\O)c4csc(N)n4)[C@H]3SC2)c(CSC(=N)N)c1 [Cmpd 139, (7R)-7-[(Z)-2-(Aminothiazol-4-yl)-2-(hydroxyimino)acetamido]-3-[2,4-(bis)isothiouroniummethylphenylthio]-3-cephem-4-carboxylate, trifluoroacetic acid salt]
MIC [1, 12]: 0.25 µg/mL
MIC [2]: 4 µg/mL
MIC [3]: 4 µg/mL
MIC [4]: 0.25 µg/mL
MIC [5]: 4 µg/mL
MIC [6]: 0.5 µg/mL
MIC [7]: 0.125 µg/mL
MIC [8]: 1 µg/mL
MIC [9]: > 32 µg/mL
ED50 [10]: 0.28 mg/kg
Mortality ([10]; dose 0.1562 mg/kg): 4/10
Mortality ([10]; dose 0.3125 mg/kg): 8/10
Mortality ([10]; dose 0.625 mg/kg): 4/10
Mortality ([10]; dose 1.25 mg/kg): 0/10
Mortality ([10]; dose 2.5 mg/kg): 1/10

N=C(N)SCCSCC(=O)N[C@@H]1C(=O)N2C(C(=O)O)=C(Sc3ccccc3CSC(=N)N)CS[C@H]12 [Cmpd 143, (7R)-7-[((2-(isothiouronium)ethylthio)acetyl)amino]-3-[2-(isothiouroniummethyl)phenylthio]-3-cephem-4-carboxylate, trifluoroacetic acid salt]
MIC [1]: 0.125 µg/mL
MIC [2]: 8 µg/mL
MIC [3]: 16 µg/mL
MIC [4]: 0.125 µg/mL
MIC [5]: 16 µg/mL
MIC [6]: 0.5 µg/mL
MIC [7]: 0.5 µg/mL
MIC [8]: 8 µg/mL
MIC [9]: > 32 µg/mL
ED50 [10]: 0.34 mg/kg
Mortality ([10]; dose 0.0391 mg/kg): 9/10
Mortality ([10]; dose 0.0781 mg/kg): 8/10
Mortality ([10]; dose 0.1562 mg/kg): 9/10
Mortality ([10]; dose 0.3125 mg/kg): 6/10
Mortality ([10]; dose 0.625 mg/kg): 2/10

N=C(N)NCCSCC(=O)N[C@@H]1C(=O)N2C(C(=O)O)=C(Sc3ccc(CSC(=N)N)cc3CSC(=N)N)CS[C@H]12 [Cmpd 141, (7R)-7-[((2-guanidinoethylthio)acetyl)amino]-3-[2,4-(bis)isothiouroniummethylphenylthio]-3-cephem-4-carboxylate, trifluoroacetic acid salt]
MIC [1, 12]: 0.25 µg/mL
MIC [2]: 2 µg/mL
MIC [3]: 8 µg/mL
MIC [4]: 0.25 µg/mL
MIC [5]: 8 µg/mL
MIC [6]: 0.5 µg/mL
MIC [7]: 1 µg/mL
MIC [8]: 4 µg/mL
MIC [9]: > 32 µg/mL
ED50 [10]: < 0.156 mg/kg
Mortality ([10]; dose 0.1562 mg/kg): 3/10
Mortality ([10]; dose 0.3125 mg/kg): 3/10
Mortality ([10]; dose 0.625 mg/kg): 2/10
Mortality ([10]; dose 1.25 mg/kg): 1/10
Mortality ([10]; dose 2.5 mg/kg): 1/10

O=C(Cc1ccccc1)N[C@@H]1C(=O)N2C(C(=O)O)=C(SCc3ccc(-c4ccccc4)cc3)CS[C@H]12 [Cmpd 12, (7R)-7-[(Phenylacetyl)amino]-3-(4-biphenylmethylthio)-3-cephem-4-carboxylic acid]
MIC [2]: > 32 µg/mL
activity against S. aureus Col [2]: lacking activity
activity against Enterococci [11]: potent activity

O=C(Cc1ccccc1)N[C@@H]1C(=O)N2C(C(=O)O)=C(Sc3ccccc3I)CS[C@H]12 [Cmpd 6, (7R)-7-[(Phenylacetyl)amino]-3-(o-iodophenylthio)-3-cephem-4-carboxylic acid]
activity against S. aureus Col [2]: broad activity
activity against S. aureus Col 8A [4]: broad activity
activity against Enterococci [11]: broad activity
Mortality ([10]; dose 0.625 mg/kg): 9/10
Mortality ([10]; dose 1.25 mg/kg): 4/10
Mortality ([10]; dose 2 mg/kg): 8/10
Mortality ([10]; dose 2.5 mg/kg): 4/10
Mortality ([10]; dose 4 mg/kg): 5/10
Mortality ([10]; dose 5 mg/kg): 1/10
Mortality ([10]; dose 8 mg/kg): 1/10
Mortality ([10]; dose 10 mg/kg): 1/10
Mortality ([10]; dose 16 mg/kg): 0/10

N=C(N)SCc1ccc(SC2=C(C(=O)O)N3C(=O)[C@@H](NC(=O)Cc4ccccc4)[C@H]3SC2)c(CSC(=N)N)c1 [Cmpd 138, (7R)-7-[(phenylacetyl)amino]-3-[2,4-(bis) (isothiouroniummethyl)phenylthio]-3-cephem-4-carboxylate, trifluoroacetic acid salt]
MIC [1, 12]: 0.125 µg/mL
MIC [2]: 2 µg/mL
MIC [3]: 8 µg/mL
MIC [4]: ≤ 0.06 µg/mL
MIC [5]: 8 µg/mL
MIC [6]: 0.5 µg/mL
MIC [7]: 0.5 µg/mL
MIC [8]: 32 µg/mL
MIC [9]: > 32 µg/mL
ED50 [10]: 0.075 mg/kg
Mortality ([10]; dose 0.0195 mg/kg): 9/10
Mortality ([10]; dose 0.0391 mg/kg): 10/10
Mortality ([10]; dose 0.0781 mg/kg): 6/10
Mortality ([10]; dose 0.1562 mg/kg): 0/10
Mortality ([10]; dose 0.3125 mg/kg): 0/10

O=C(Cc1ccccc1)N[C@@H]1C(=O)N2C(C(=O)O)=C(Sc3ccccc3-c3ccccc3)CS[C@H]12 [Cmpd 9, (7R)-7-[(Phenylacetyl)amino]-3-(2-biphenylthio)-3-cephem-4-carboxylic acid]
MIC [2]: 4 µg/mL (≈ 7.96 µM)
activity against S. aureus Col [2]: broad activity
activity against S. aureus Col 8A [4]: broad activity
activity against Enterococci [11]: broad activity

CSCC(=O)N[C@@H]1C(=O)N2C(C(=O)O)=C(Sc3ccc(CSC(=N)N)cc3CSC(=N)N)CS[C@H]12 [Cmpd 140, (7R)-7-[(methylthioacetyl)amino]-3-[2,4-(bis)isothiouroniummethylphenylthio]-3-cephem-4-carboxylate, trifluoroacetic acid salt]
MIC [1, 12]: 0.125 µg/mL
MIC [2]: 2 µg/mL
MIC [3]: 8 µg/mL
MIC [4]: ≤ 0.06 µg/mL
MIC [5]: 8 µg/mL
MIC [6]: 1 µg/mL
MIC [7]: 1 µg/mL
MIC [8]: > 32 µg/mL
MIC [9]: > 32 µg/mL
ED50 [10]: < 0.156 mg/kg
Mortality ([10]; dose 0.1562 mg/kg): 0/10
Mortality ([10]; dose 0.3125 mg/kg): 1/10
Mortality ([10]; dose 0.625 mg/kg): 2/10
Mortality ([10]; dose 1.25 mg/kg): 0/10
Mortality ([10]; dose 2.5 mg/kg): 0/10

— patent US5698547A, “Cephalosporin antibiotics” (Microcide Pharmaceuticals, Inc., priority 1995, dated 1997)
